Experimental data from US20090036527A1, “Therapeutic Application Of Leonurine In Treating Cardiomyopathy” (priority 2007, published 2009).
Like-named read-outs stand apart in the source and are kept apart here.

Assays:
myocardial cells [1] = assay: Myocardial cell viability (MTT) after hypoxia; type: cell-based, rat; conditions: hypoxia 6 hours; 10^−6 mol/L; vs vehicle (MI) group; p<0.01
Description: The heart sample of 3 day old Sprague-Dawley (SD) rat (first generation) was washed in PBS (phosphate balanced solution) under sterilized condition. The sample is digested in 0.08% pancreatic enzyme solution 37 degree C for 10 minutes in a flask, wherein the solution was stirred constantly. In order to stop the digestion, serum was added into the flask and mixed with the solution. The digesting process was repeated 8 times, and the supernatant of each digestion was collected. The supernatant was centrifuged 2,000/minute for 5 minutes, and the myocardial cells were collected each time. The myocardial cell density was adjusted to 10^6/sample and cultured in DMEM containing 10% calf serum for 3 days.
The cultured myocardial cells were divided into the following groups:
Control group, no Leonurine treatment, no hypoxia process.
Hypoxia (vehicle, MI) group, no Leonurine treatment, under hypoxia condition for 6 hours.
Leonurine group, under hypoxia condition for 6 hours then cultured with corresponding treatment of Leonurine 10^−6 mol/L. […]
Myocardial cell viability was assessed by MTT method, which is the measurement of the reduction of 3-(4,5-dimethylthiazol-2-yl)-2,5-diphenyltetrazolium bromide (MTT). […] The amount of formazan was measured using a microplate reader at spectrum 570 nm.

[2] = test system: vascular smooth muscle cells; conditions: Chen and Kwan, Life Sciences 2001; cited from earlier work
myocardial cells [3] = assay: Catalase activity of myocardial cells under hypoxia; type: cell-based, rat; conditions: 10^−6 mol/L
Description: Myocardial cell samples were obtained from the same procedure of Example 1B, and the experiments were performed same as Example 1B with the same dosages and same conditions. Catalase can catalyze oxygen free radicals, its activity in Leonurine treated hypoxia cells groups is elevated. (FIG. 3)

myocardial ischemic rat [4] = assay: Plasma MDA level and left ventricle SOD activity in MI rat model; type: in vivo; conditions: MI rats; 7.5 or 15 mg/Kg/day intraperitoneal
From the text: MDA reflect lipid peroxidation level in MI injuries myocardial cells. SOD plays an important role in balancing oxidant and antioxidant system in an organism. SOD can eliminate superoxide free radicals, thereby protect cells from injury. Same MI models in same rat groups as Experiment 2A were established. Plasma MDA level and left ventricle SOD activity were detected. […] (FIG. 9 and FIG. 10)

[5] = test system: animal heart failure model; assay: Cardiac function by catheterization in rat heart failure model; type: in vivo; conditions: HF rats, 8 weeks
Description: (§1) Heart failure (HF) animal model, which was occlusive ligation of anterior descending coronary artery, was employed. All treatment was given via intragastric administration. The experimental period was 8 weeks. HF was induced on day eight by ligation of the left anterior descending coronary artery at approximately 2-3 mm from its origin. Briefly, the rats were anesthetized with 7% choral hydrate (60 mg/kg), endotracheally intubated and mechanically ventilated with room air, respiratory rate 100 breaths/min, tidal volume 2.5 ml with a rodent ventilator (DHX-150, China). ECG was recorded in the anaesthetized animal for a period of one minute using the Animal Mflab200 amplifier (Produced in China) as controls. A left thoracotomy was performed and the third intercostal space was exposed. The proximal left anterior descending coronary artery, which supplies blood to left ventricle of the heart, was ligated at the position 2-3 mm from the aorta with a 5-0 atraumatic suture that was passed through the superficial layers of myocardium, between the left auricle and the cone of pulmonary artery. […] Then incisions were sutured and the chests were closed. Sham operated rats were prepared in the same manner except the left coronary was not ligated. After completion of the surgical procedures, rats were removed from the ventilator and the endotracheal tube removed. The rats were kept warm, given water and food after they were awake from the anesthesia and kept in different cages according to experiment groups. The rats in correspondent experiment groups were given corresponding dosages of Leonurine continuously for 8 weeks, while the rats in control and MI groups were given no Leonurine. Two days after ligation, surviving rats were performed in four groups of rats in random fashion. Group 1: Sham-operated rats. The rats served as controls and received saline throughout the study. Group 2: Heart failure rats. This group consisted of rats with heart failure that received saline. Group 3: Heart failure plus low dose leonorine (15 mg/kg/day). Group 4: Heart failure plus high dose leonorine (30 mg/kg/day). All treatment was given via intragastric administration. The experimental period was 8 weeks. To evaluate the effect of Leonurine on HF, catheterizations to arteries and ventricles are performed to record heat rate (HR), mean aortic pressure (MAP), Left Ventricular Systolic Pressure (LVSP), Left Ventricular End-Diastolic Pressure (LVEDP), peak positive first derivative of left ventricular pressure (+dP/dt), peak negative first derivative of left ventricular pressure (−dP/dt). Data from the measurement of the recording were analyzed to observe the effect of Leonurine. Furthermore, plasma cysteine level and plasma ascorbic acid level were measured by capillary electrophoresis.

myocardial cells [6] = assay: SOD and CuZn-SOD activities of myocardial cells under hypoxia; type: cell-based, rat; conditions: 10^−6 mol/L
Description: Myocardial cell samples were obtained from the same procedure of Example 1B, and the experiments were performed same as Example 1B with the same dosages and same conditions. SOD (superoxide dismutase) plays an important role in balancing oxidant and antioxidant system in an organism. SOD can eliminate superoxide free radicals, thereby protect cells from injury. The activities of SOD and CuZn-SOD in Leonurine treated hypoxia cells are elevated. […] (FIG. 4)

myocardial ischemic rat [7] = assay: Plasma LDH and CK levels in MI rat model; type: in vivo; conditions: MI rats; 7.5 or 15 mg/Kg/day intraperitoneal; p<0.05
Description: MI injuries myocardial cells and CK and LDH levels are increased in the serum of the animals. After MI, the animal plasma CK level and LDH level were measured, and Leonurine's effects were assessed. Same MI models in same rat groups as Experiment 2A were established. Plasma CK levels were detected with diagnostic kit (NJBI, China) according to the instructions. LDH were determined colorimetrically with a spectrophotometer. […] (FIG. 7 and FIG. 8)

myocardial cells [8] = assay: LDH leakage (release) from hypoxia injured myocardial cells; type: cell-based, rat; conditions: hypoxia 6 hours; 10^−6 mol/L; vs vehicle (hypoxia) group; p<0.01
Description: Myocardial cell samples were obtained from the same procedure of Example 1A, the experiment groups were divided and hypoxia experiments were performed on Control group (no Leonurine treatment, no hypoxia/reoxygenation process), vehicle (hypoxia) group (no Leonurine treatment, under hypoxia condition for 6 hours), and Leonurine group (10^−6 mol/L). Myocardial cells were obtained from each sample (10^6 myocardial cells/sample) from the Control group, vehicle (hypoxia) group, Leonurine group. The cells were lysed under sterilized condition, and LDH (Lactate Dehydrogenase) contents in each sample of the cells were tested by pyruvic acid production method, using LDH content in Control sample cells as standard of 100%. The rate of LDH leakage (release) was calculated, which is the difference between LDH content of Control group samples and vehicle (hypoxia) group or Leonurine group or Losartan group.

myocardial ischemic rat [9] = assay: Infarct size (TTC staining) and mortality in MI rat model (coronary artery ligation); type: in vivo; conditions: MI rats, 7.5 or 15 mg/Kg/day intraperitoneal, vs saline
myocardial cells [10] = assay: MDA content of myocardial cells under hypoxia (TBA method); type: cell-based, rat; conditions: 10^−6 mol/L
Description: Myocardial cell samples were obtained from the same procedure of Example 1B, and the experiments were performed same as Example 1B with the same dosages and same conditions. Oxygen free radicals produced by enzyme and non enzyme systems in an organism attack poly unsaturated fatty acid in biomembrane, inducing lipid peroxidation and producing MDA (malondialdehyde). MDA can react with thiobarbituric acid (TBA), forms red product, which can be detected in spectrophotometer at 532 nm. The level of MDA can be used to indicate lipid peroxidation, thereby reflect condition of cell injury.

Bcl-2 and Bax = Bcl-2 and Bax mRNA and protein levels in MI rat model; type: in vivo; conditions: MI rats; 7.5 or 15 mg/Kg/day intraperitoneal
From the text: Bax is a gene promoting cell apoptosis. Bcl-2 is an anti apoptosis gene. Same MI models in same rat groups as Experiment 2A were established. mRNA and protein levels of Bax and Bcl-2 were detected. […] (FIG. 11 and FIG. 12)

creatine kinase (CK) = conditions: concentration- and time-dependent; Zhao Wang et al. 2004; cited from earlier work
[11] = Plasma Leonurine, cysteine and ascorbic acid levels (capillary electrophoresis) in rat heart failure model; type: in vivo; conditions: HF rats; for plasma Ascorbic acid level / plasma Cysteine level: 8 weeks; for concentration at 8 weeks: rat, plasma, oral, read-out: plasma Leonurine level
Description: as §1

[12] = Acta Physiologica Sinica 2007; cited from earlier work

For `COc1cc(C(=O)OCCCCNC(=N)N)cc(OC)c1O` [Leonurine], which “survival rate of myocardial cell (cell viability)” value (myocardial cells [1]) is on record?
The value was “significantly increase”.

What about the “contraction of the smooth muscle cells” value [2] of the same compound?
Its value is “inhibiting”.

What about the “intracellular calcium ion release and outside calcium ion influx through calcium channels” value [2] of the same compound?
The value was “inhibits”.

And the Catalase activity (myocardial cells [3])?
Its Catalase activity is “elevated”.

And the “left ventricle SOD activity” value (myocardial ischemic rat [4])?
The value was “increase”.

What about the “plasma MDA level” value (myocardial ischemic rat [4]) of the same compound?
Its value is “significantly reduce”.

What about the HR ([5]; 15 mg/kg/day intragastric) of the same compound?
Its HR is 441 ± 29 beats/min.

What about the LVEDP ([5]; 15 mg/kg/day intragastric) of the same compound?
The LVEDP was 11.53 ± 1.83 mmHg.

And the LVSP ([5]; 15 mg/kg/day intragastric)?
The LVSP was 143.77 ± 26.82 mmHg.

What about the MAP ([5]; 15 mg/kg/day intragastric) of the same compound?
Its MAP is 107.86 ± 31.23 mmHg.

What about the dP/dt ([5]; 15 mg/kg/day intragastric) of the same compound?
Its dP/dt is 4205 ± 412.71 mmHg/s.

And the “−dP/dt” value ([5]; 15 mg/kg/day intragastric)?
Its value is −4368.83 ± 662.12 mmHg/s.

And the HR ([5]; 30 mg/kg/day intragastric)?
The HR was 427 ± 78 beats/min.

What about the LVEDP ([5]; 30 mg/kg/day intragastric) of the same compound?
Its LVEDP is 13 ± 5.96 mmHg.

What about the LVSP ([5]; 30 mg/kg/day intragastric) of the same compound?
Its LVSP is 126.37 ± 2.28 mmHg.

And the MAP ([5]; 30 mg/kg/day intragastric)?
The MAP was 92.59 ± 10.91 mmHg.

What about the dP/dt ([5]; 30 mg/kg/day intragastric) of the same compound?
Its dP/dt is 4095 ± 433.45 mmHg/s.

What about the “−dP/dt” value ([5]; 30 mg/kg/day intragastric) of the same compound?
The value was −3276.62 ± 283.77 mmHg/s.

And the CuZn-SOD activity (myocardial cells [6])?
The CuZn-SOD activity was “elevated”.

What about the SOD activity (myocardial cells [6]) of the same compound?
Its SOD activity is “elevated”.

What about the “plasma CK level” value (myocardial ischemic rat [7]) of the same compound?
Its value is “significantly reduce”.

What about the “plasma LDH level” value (myocardial ischemic rat [7]) of the same compound?
The value was “significantly reduce”.

And the “LDH leaking (release) rate” value (myocardial cells [8])?
The value was “lower”.

What about the “infarct size of myocardium” value (myocardial ischemic rat [9]; 7 days before and 2 days after ligation) of the same compound?
Its value is “significantly less”.

What about the mortality rate (myocardial ischemic rat [9]) of the same compound?
Its mortality rate is “not difference”.

And the “MDA level from lipid peroxidation” value (myocardial cells [10])?
The value was “inhibited”.

And the “Bax mRNA expression” value (Bcl-2 and Bax)?
The value was “significantly reduce”.

And the Bax protein expression (Bcl-2 and Bax)?
Its Bax protein expression is “significantly reduce”.

And the “Bcl-2 mRNA expression” value (Bcl-2 and Bax)?
Its value is “increase”.

And the Bcl-2 protein expression (Bcl-2 and Bax)?
The Bcl-2 protein expression was “increase”.

And the “activity of creatine kinase (CK)” value (creatine kinase (CK))?
Its value is “inhibits the enzyme activity”.

What about the “plasma Ascorbic acid level” value ([11]; 15 mg/kg/day intragastric) of the same compound?
The value was 26.02 ± 3.95 µmol/L.

What about the “plasma Cysteine level” value ([11]; 15 mg/kg/day intragastric) of the same compound?
The value was 31.3 ± 21.32 µmol/L.

And the “plasma Ascorbic acid level” value ([11]; 30 mg/kg/day intragastric)?
The value was 39.79 ± 4.33 µmol/L.

And the “plasma Cysteine level” value ([11]; 30 mg/kg/day intragastric)?
The value was 35.29 ± 9.73 µmol/L.

And the concentration at 8 weeks ([11]; 15 mg/kg/day intragastric)?
The concentration at 8 weeks was 7.42 ± 3.13 µM.

And the concentration at 8 weeks ([11]; 30 mg/kg/day intragastric)?
Its concentration at 8 weeks is 48 ± 11 µM.

For `COc1cc(C(=O)OCCCCNC(=N)N)cc(OC)c1O` [Kardigen], which anti-oxidative effects [12] is on record?
Its anti-oxidative effects is “has anti-oxidative effects”.

What about the “prevention of ischemia cardiomyopathy” value [12] of the same compound?
Its value is “can prevent ischemia cardiomyopathy effectively”.

Which “LDH leaking (release) rate” value (myocardial cells [8]) does the source give for `CCCCc1nc(Cl)c(CO)n1Cc1ccc(-c2ccccc2-c2nn[nH]n2)cc1` [Losartan, reference compound] here?
The value was “lower”.
